Assay results from patent US20260248805A1, “DIAMINOPHENOTHIAZINE FOR THE TREATMENT OF MICROVASCULAR BRAIN DISEASE” (priority 2023, published 2026).
Entries after “also recorded” stand apart in the source; their conditions may differ.

Experiments:
[1] = system: white matter hyperintensities (microvascular pathology); test: Phase 3 clinical trials of LMTM in AD: MRI total lesion volume (TLV) of white matter hyperintensities; assay type: in vivo, human; conditions: for exposure dependence of rate of progression of microvascular pathology: low dose monotherapy, FIG. 6, TLV change from baseline; for estimate: difference in increase in TLV, LMTM monotherapy vs LMTM in combination with AD symptomatic treatments: FIGS. 7A and B, no unit printed at the table; for estimate: difference in increase in Total Lesion volume (TLV), LMTM monotherapy vs LMTM in combination with symptomatic treatments for AD: AD patients, MRI
Description: The design and results from two large Phase 3, double-blind, controlled, randomised clinical trials of hydromethylthionine in probable AD were described elsewhere. Study TRx-237-015 (clintrials.gov NCT01689246), involved 890 mild/moderate AD patients and study TRx-237-005 (clintrials.gov NCT01689233), had 800 patients with mild AD meeting NIA/AA diagnostic criteria for probable AD. Eligible patients were aged less than 90 years. Patients were excluded if they had: a recent history of poorly controlled hypertension, or clinically significant cardiovascular disease (such as hospitalization for acute coronary syndrome or symptoms consistent with angina pectoris), or a modified Hachinski ischemic score of >4. Patients were also excluded if significant vascular pathology was seen on brain MRI, including large confluent white matter hyperintensities that would lead to a diagnosis other than probable AD. A detailed list of all inclusion and exclusion criteria for both trials is available in the supplementary materials. FDG-PET was performed at baseline in only a subgroup of TRx-237-015 subjects (n=198) but was required for all participants in TRx-237-005 if the appropriate imaging facilities were available at the study site. Of 1690 participants enrolled in both studies, 794 had available FDG-PET scans at baseline.
In this trial only GE, Siemens, or Philips (1.5-Tesla and 3.0-Tesla) machines were used to reduce the variability in the imaging data. The MRI sequences utilised in this protocol were based on the ADNI protocol. The recommended range of acquisition parameters for individual sequences for GE, Siemens, and Philips MRI machines were developed after technical evaluation forms from all sites. The following sequences were included: FLAIR: This sequence allows assessment of other clinically significant focal intracranial pathology and for detection and quantification of WMHs; Unenhanced T1-weighted, 3-dimensional sequence (e.g., MP RAGE or SPGR) were used for evaluation of the whole brain, ventricular and hippocampal volumes and WMH.
Brain MRI derived WMHs were quantified using the Lesion Growth Algorithm (LGA) part of the Lesion Segmentation Toolbox (LST [28]) which is an automated method for extracting WMH and has been validated in various datasets. This algorithm uses T1 and FLAIR MR images to classify voxels, with T1 images used to segment tissue classes white matter (WM), grey matter (GM), cerebrospinal fluid (CSF) and fluid attenuated inversion recovery (FLAIR) imaging used to determine areas of hyperintense signal (i.e., WMH). WMH data are provided as whole-brain total lesion volume (TLV), measured in cm^3.
Exposure dependence groups were defined in accordance with the methods described in more detail in WO2020/020751 discussed hereinbefore.

[2] = cited from earlier work
tau aggregation = tau aggregation (Homo sapiens, UniProt P10636); conditions: in vitro (LMTM: in vitro and in vivo); cited from earlier work
[3] = compared with the MT+ form; cited from earlier work
Alzheimer's disease = conditions: monotherapy vs combination with AChEIs and/or memantine; cited from earlier work
tau pathology = conditions: transgenic mouse tau models; brain concentrations consistent with human oral dosing; cited from earlier work
[4] = system: PHFs from Alzheimer's disease brain tissue; conditions: cited from earlier work

Sequence of tau aggregation (P10636 whole entry): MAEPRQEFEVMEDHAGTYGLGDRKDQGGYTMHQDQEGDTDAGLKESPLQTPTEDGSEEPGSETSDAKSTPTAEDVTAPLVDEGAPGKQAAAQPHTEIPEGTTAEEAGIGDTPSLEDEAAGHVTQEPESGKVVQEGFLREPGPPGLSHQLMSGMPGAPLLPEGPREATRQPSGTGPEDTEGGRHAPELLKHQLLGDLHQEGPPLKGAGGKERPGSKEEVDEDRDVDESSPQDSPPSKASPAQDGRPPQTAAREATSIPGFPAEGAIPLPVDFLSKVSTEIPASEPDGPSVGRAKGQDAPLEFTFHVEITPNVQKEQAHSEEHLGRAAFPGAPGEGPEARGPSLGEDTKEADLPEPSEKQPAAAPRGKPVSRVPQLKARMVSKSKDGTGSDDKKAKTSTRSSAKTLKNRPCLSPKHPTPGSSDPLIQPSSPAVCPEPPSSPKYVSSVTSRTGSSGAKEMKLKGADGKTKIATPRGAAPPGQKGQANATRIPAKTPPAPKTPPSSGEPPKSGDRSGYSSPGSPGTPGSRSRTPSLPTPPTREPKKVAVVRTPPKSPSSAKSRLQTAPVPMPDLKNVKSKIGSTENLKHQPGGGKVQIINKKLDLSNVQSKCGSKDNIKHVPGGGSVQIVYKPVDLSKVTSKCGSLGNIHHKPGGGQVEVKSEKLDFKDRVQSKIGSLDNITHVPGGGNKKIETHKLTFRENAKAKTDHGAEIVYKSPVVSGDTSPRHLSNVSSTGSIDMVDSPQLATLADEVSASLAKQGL

Row | SMILES | exposure dependence of rate of progression of microvascular pathology [1] | estimate: difference in increase in TLV, LMTM monotherapy vs LMTM in combination with AD symptomatic treatments ([1]; 4 mg b.i.d. (low dose group)) | estimate: difference in increase in Total Lesion volume (TLV), LMTM monotherapy vs LMTM in combination with symptomatic treatments for AD ([1]; 4 mg b.i.d. (low dose)) | estimate: difference in increase in Total Lesion volume (TLV), LMTM monotherapy vs LMTM in combination with symptomatic treatments for AD ([1]; 100 mg b.i.d. (high dose)) | estimate: difference in increase in TLV, LMTM monotherapy vs LMTM in combination with AD symptomatic treatments ([1]; 100 mg b.i.d., high dose (mean of high doses, 150-250 mg/day)) | increase in Total Lesion volume, monotherapy vs combination with symptomatic treatments for AD ([1]; high dose and low dose groups, statistically significant difference) | pharmaceutic properties: solubility and pKa [2] | tau aggregation inhibitor activity (tau aggregation) | absorption [3] | treatment benefit in AD according to the trial criteria (Alzheimer's disease) | tau pathology and behavioural deficits (tau pathology) | dissolution of PHFs [4]
1 | CN(C)c1ccc2c(c1)Sc1cc(N(C)C)ccc1N2 [LMT, N3,N3,N7,N7-tetramethyl-10H-phenothiazine-3,7-diamine] | exposure-dependent reduction in progression of microvascular pathology | – | – | – | – | – | – | – | – | – | – | –
2 | CN(C)c1ccc2c(c1)Sc1cc(N(C)C)ccc1N2.CS(=O)(=O)O.CS(=O)(=O)O [LMTM, N,N,N′,N′-tetramethyl-10H-phenothiazine-3,7-diaminium bis(hydromethanesulfonate)] | exposure-dependent difference in rate of progression of microvascular pathology | −0.3494 | -0.3494 mL | -0.3865 mL | −0.3865 | less increase in Total Lesion volume; also recorded: less increase in TLV | superior pharmaceutic properties in terms of solubility and pKa | retains TAI activity in vitro and in vivo | not subject to the absorption limitations of the MT^+ form | restricted to patients taking LMTM as monotherapy | – | –
3 | CN(C)c1ccc2nc3ccc(=[N+](C)C)cc-3sc2c1 [MT, Methylthioninium] | – | – | – | – | – | – | – | acts as a tau aggregation inhibitor in vitro | – | – | reduces tau pathology and associated behavioural deficits | dissolves PHFs from Alzheimer's disease brain tissue
